According to patent publication US20240327382A1 (ALMAC DISCOVERY LIMITED, priority 2021, published 2024):

Molecular target: T1, Full-length USP19 (Homo sapiens, UniProt O94966)
T1 construct: Full-length USP19 was purchased from Boston Biochem (E-576); purchased Boston Biochem E-576
T1 sequence (O94966 1-1318): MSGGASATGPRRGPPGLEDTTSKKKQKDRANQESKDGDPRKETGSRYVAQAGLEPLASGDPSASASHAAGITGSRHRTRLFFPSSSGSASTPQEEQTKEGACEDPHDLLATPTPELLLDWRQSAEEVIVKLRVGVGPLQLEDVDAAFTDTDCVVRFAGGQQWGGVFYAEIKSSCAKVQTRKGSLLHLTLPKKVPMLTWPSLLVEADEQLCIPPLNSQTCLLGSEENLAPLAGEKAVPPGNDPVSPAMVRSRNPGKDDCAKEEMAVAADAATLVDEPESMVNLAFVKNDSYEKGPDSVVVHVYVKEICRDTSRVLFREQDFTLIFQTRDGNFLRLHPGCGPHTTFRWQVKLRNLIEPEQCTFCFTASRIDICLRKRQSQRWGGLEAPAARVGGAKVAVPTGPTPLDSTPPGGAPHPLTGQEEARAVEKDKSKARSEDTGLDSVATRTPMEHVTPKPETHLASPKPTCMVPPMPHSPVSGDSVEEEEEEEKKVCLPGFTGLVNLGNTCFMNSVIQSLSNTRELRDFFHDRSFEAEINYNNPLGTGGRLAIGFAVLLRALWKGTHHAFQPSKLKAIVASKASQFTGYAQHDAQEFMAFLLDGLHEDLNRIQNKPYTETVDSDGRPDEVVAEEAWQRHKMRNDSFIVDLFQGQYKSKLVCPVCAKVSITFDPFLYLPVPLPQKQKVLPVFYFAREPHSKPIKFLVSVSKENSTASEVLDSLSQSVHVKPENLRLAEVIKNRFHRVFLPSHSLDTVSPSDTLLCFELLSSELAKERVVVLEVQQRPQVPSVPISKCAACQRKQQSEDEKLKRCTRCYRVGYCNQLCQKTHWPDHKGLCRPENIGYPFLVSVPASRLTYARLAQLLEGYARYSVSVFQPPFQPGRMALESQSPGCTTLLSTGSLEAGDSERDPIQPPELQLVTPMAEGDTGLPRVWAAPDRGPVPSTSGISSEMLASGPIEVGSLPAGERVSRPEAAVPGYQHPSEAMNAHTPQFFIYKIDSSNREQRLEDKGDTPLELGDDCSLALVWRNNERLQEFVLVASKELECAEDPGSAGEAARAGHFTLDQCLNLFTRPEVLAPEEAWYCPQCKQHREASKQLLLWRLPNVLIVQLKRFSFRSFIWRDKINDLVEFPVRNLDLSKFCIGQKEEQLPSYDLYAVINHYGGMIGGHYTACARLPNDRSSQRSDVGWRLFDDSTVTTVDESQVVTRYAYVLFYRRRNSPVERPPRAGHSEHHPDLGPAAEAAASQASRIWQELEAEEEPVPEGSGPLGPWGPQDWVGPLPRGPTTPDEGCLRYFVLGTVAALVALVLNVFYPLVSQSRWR
Assay: USP19 fluorescence polarisation (FP) assay, Ubiquitin-Lys-TAMRA substrate
Assay type: biochemical
Settings: average of at least two duplicate experiments
Experimental: USP19 activity was determined in a fluorescence polarisation (FP) homogeneous assay using the isopeptide Ubiquitin-Lys-TAMRA substrate (either AUB-101, Almac Sciences Scotland Limited, or U-558, Boston Biochem, both of which gave identical results). Full-length USP19 was purchased from Boston Biochem (E-576). Unless otherwise stated, all other reagents were purchased from Sigma. Enzymatic reactions were conducted in black flat bottom polystyrene 384-well plates (Nunc) and 30 μL total volume. USP19 (2.5 nM, 10 μL) was incubated in assay buffer (50 mM HEPES (pH 7.4), 150 mM NaCl, 5 mM DTT, 0.05% BSA (w/v), 0.05% CHAPS) in the presence or absence of inhibitor (10 μL). Inhibitors were stored as 10 mM DMSO stocks in an inert environment (low humidity, dark, low oxygen, rt) using the StoragePod® system (Roylan Developments) and serial dilutions were prepared in buffer just prior to the assay (from 200 μM to 2 μM, 8-18 data point curve). Following incubation at RT for 30 min, the enzymatic reactions were initiated by dispensing the Ub substrate (500 nM, 10 μL). FP was measured every 15 min over a period of 90 min (within the linear range of the assay) using a Synergy 4 plate reader (BioTek) exciting at 530 nm and measuring the amount of parallel and perpendicular light at 575 nm. The FP signal was subsequently normalised to the no compound control. Data were plotted and fitted, and the concentrations resulting in 50% inhibition (IC50) were calculated using the non-linear regression curve fitting model using GraphPad (Prism). IC50 values for the inhibitors of the invention are compiled in Tables 1 and 3 and represent the average of at least two duplicate experiments.

SMILES	IC50
CN[C@@H]1CCN(C(=O)N2CC[C@@H](Cn3cnc(-c4ccccc4C)cc3=O)C3(CCCC3)C2)[C@H](c2ccc(F)c(F)c2)C1 [Example 139, 3-(((R)-7-((2S,4R)-2-(3,4-Difluorophenyl)-4-(methylamino)piperidine-1-carbonyl)-7-azaspiro[4.5]decan-10-yl)methyl)-6-(0-tolyl)pyrimidin-4(3H)-one]	< 10 nM
CN(C)[C@@H]1CCN(C(=O)N2CC[C@@H](Cn3cnc4ccc(F)cc4c3=O)C3(CCCC3)C2)[C@H](c2cc(F)ccc2F)C1 [Example 174, 3-(((R)-7-((2S,4R)-2-(2,5-Difluorophenyl)-4-(dimethylamino)piperidine-1-carbonyl)-7-azaspiro[4.5]decan-10-yl)methyl)-6-fluoroquinazolin-4(3H)-one]	< 10 nM
N[C@@H]1CCN(C(=O)N2CC[C@@H](Cn3cnc(-c4ccccc4)cc3=O)C3(CCCC3)C2)[C@H](c2ccc(F)cc2F)C1 [Example 80, 3-(((R)-7-((2S,4R)-4-Amino-2-(2,4-difluorophenyl)piperidine-1-carbonyl)-7-azaspiro[4.5]decan-10-yl)methyl)-6-phenylpyrimidin-4(3H)-one]	< 10 nM
O=C(N1CC[C@@H](Cn2cnc(C(F)F)cc2=O)C2(CCCC2)C1)N1CC[C@@H](NC2CC(F)(F)C2)C[C@H]1c1cc(F)ccc1F [Example 183, 3-(((R)-7-((2S,4R)-4-((3,3-Difluorocyclobutyl)amino)-2-(2,5-difluorophenyl)piperidine-1-carbonyl)-7-azaspiro[4.5]decan-10-yl)methyl)-6-(difluoromethyl)pyrimidin-4(3H)-one]	10 to 100 nM
N[C@@H]1CCN(C(=O)N2CC[C@@H](Cn3ccc(-c4ccccc4F)cc3=O)C3(CCCC3)C2)[C@H](c2ccccc2)C1 [Example 61, 1-(((R)-7-((2S,4R)-4-Amino-2-phenylpiperidine-1-carbonyl)-7-azaspiro[4.5]decan-10-yl)methyl)-4-(2-fluorophenyl)pyridin-2(1H)-one]	< 10 nM
N[C@@H]1CCN(C(=O)N2CCC(Cn3cnc4c(cnn4C4CC4)c3=O)C3(CCCC3)C2)[C@H](c2ccccc2)C1 (stereo partly drawn) [Example 35, 5-((7-((2S,4R)-4-Amino-2-phenylpiperidine-1-carbonyl)-7-azaspiro[4.5]decan-10-yl)methyl)-1-cyclopropyl-1,5-dihydro-4H-pyrazolo[3,4-d] pyrimidin-4-one]	< 10 nM
CN[C@@H]1CCN(C(=O)N2CC[C@@H](Cn3cnc4ccc(F)cc4c3=O)C3(CCCC3)C2)[C@H](c2ccc(F)cc2F)C1 [Example 191, 3-(((R)-7-((2S,4R)-2-(2,4-Difluorophenyl)-4-(methylamino)piperidine-1-carbonyl)-7-azaspiro[4.5]decan-10-yl)methyl)-6-fluoroquinazolin-4(3H)-one]	< 10 nM
N[C@@H]1CCN(C(=O)N2CCC(Cn3cnc4cc(F)c(F)cc4c3=O)C3(CCCC3)C2)[C@H](c2ccccc2)C1 (stereo partly drawn) [Example 37, 3-((7-((2S,4R)-4-Amino-2-phenylpiperidine-1-carbonyl)-7-azaspiro[4.5]decan-10-yl)methyl)-6,7-difluoroquinazolin-4(3H)-one]	< 10 nM
N[C@@H]1CCN(C(=O)N2CC[C@@H](Cn3ccc(-c4ccccc4)cc3=O)C3(CCCC3)C2)[C@H](c2cccc(F)c2)C1 [Example 65, 1-(((R)-7-((2S,4R)-4-Amino-2-(3-fluorophenyl)piperidine-1-carbonyl)-7-azaspiro[4.5]decan-10-yl)methyl)-4-phenylpyridin-2(1H)-one]	< 10 nM
O=C(N1CC[C@@H](Cn2cnc(-c3ccccc3)cc2=O)C2(CCCC2)C1)N1CCNC[C@H]1c1ccccc1 (single isomer, unassigned) [Example 14]	< 10 nM
CN[C@@H]1CCN(C(=O)N2CC[C@@H](Cn3cnc(-c4ccccc4OC)cc3=O)C3(CCCC3)C2)[C@H](c2ccccc2F)C1 [Example 103, 3-(((R)-7-((2S,4R)-2-(2-Fluorophenyl)-4-(methylamino)piperidine-1-carbonyl)-7-azaspiro[4.5]decan-10-yl)methyl)-6-(2-methoxyphenyl)pyrimidin-4(3H)-one]	< 10 nM
